Measurements as given in paper doi:10.1101/2021.10.01.462758v2 (biorxiv, 2021).
Read-outs that look alike come from different tables or passages of the source.

Assays:
[1] = molecular target: T1, D2R; D2Long receptor fused to C-terminal RLuc (BRET assay) (Homo sapiens, UniProt P14416); assay: cell-based; design: species or system HEK293T; conditions: for Emax: HEK-293T, read-out: β-arrestin Emax (%), D2R
[2] = molecular target: T2, D1R; D1 receptor fused to C-terminal RLuc (BRET assay) (Homo sapiens, UniProt P21728); assay: BRET beta-arrestin2 recruitment, HEK293T; assay type: cell-based
T2 sequence (P21728 whole entry, the tested form may be a part): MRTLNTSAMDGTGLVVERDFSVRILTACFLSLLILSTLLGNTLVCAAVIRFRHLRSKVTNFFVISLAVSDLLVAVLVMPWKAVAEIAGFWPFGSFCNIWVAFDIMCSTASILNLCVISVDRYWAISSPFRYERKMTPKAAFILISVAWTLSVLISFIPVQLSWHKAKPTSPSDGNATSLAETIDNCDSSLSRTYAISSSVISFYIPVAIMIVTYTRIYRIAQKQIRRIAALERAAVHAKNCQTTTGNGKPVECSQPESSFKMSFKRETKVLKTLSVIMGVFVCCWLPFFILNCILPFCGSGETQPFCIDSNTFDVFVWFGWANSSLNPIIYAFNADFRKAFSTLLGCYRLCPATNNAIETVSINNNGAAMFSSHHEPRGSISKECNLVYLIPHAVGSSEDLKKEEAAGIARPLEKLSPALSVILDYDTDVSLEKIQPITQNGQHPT

[3] = molecular target: T1, D2R; D2Long receptor fused to C-terminal RLuc (BRET assay); assay: BRET beta-arrestin2 recruitment, HEK293T; assay type: cell-based
[4] = molecular target: T2, D1R; D1 receptor fused to C-terminal RLuc (BRET assay); assay: cell-based; design: species or system HEK293T; conditions: HEK-293T, read-out: β-arrestin Emax (%), D1R
[5] = molecular target: T2, D1R; D1 receptor fused to C-terminal RLuc (BRET assay); assay: cell-based; design: species or system HEK293T; conditions: HEK-293T, read-out: β-arrestin Emax (%), D1R; remark: listed apart in the source
[6] = molecular target: T1, D2R; D2Long receptor fused to C-terminal RLuc (BRET assay); assay: cell-based; design: species or system HEK293T
[7] = molecular target: T1, D2R; D2Long receptor fused to C-terminal RLuc (BRET assay); assay: cell-based; design: species or system HEK293T; remark: listed apart in the source
[8] = molecular target: T1, D2R; D2Long receptor fused to C-terminal RLuc (BRET assay); assay: cell-based; design: species or system HEK293T; conditions: HEK-293T, read-out: β-arrestin Emax (%), D2R
[9] = molecular target: T2, D1R; D1 receptor fused to C-terminal RLuc (BRET assay); assay: cell-based; design: species or system HEK293T; conditions: HEK-293T, read-out: β-arrestin Emax (%), D1R; remark: listed apart in the source
[10] = molecular target: T1, D2R; D2Long receptor fused to C-terminal RLuc (BRET assay); conditions: agonist
[11] = molecular target: T2, D1R; D1 receptor fused to C-terminal RLuc (BRET assay); assay: cell-based; design: species or system HEK293T; conditions: HEK-293T, read-out: β-arrestin Emax (%), D1R; remark: listed apart in the source
[12] = molecular target: T1, D2R; D2Long receptor fused to C-terminal RLuc (BRET assay); assay: cell-based; design: species or system HEK293T; remark: listed apart in the source
[13] = molecular target: T1, D2R; D2Long receptor fused to C-terminal RLuc (BRET assay); assay: cell-based; design: species or system HEK293T; conditions: HEK-293T, read-out: β-arrestin Emax (%), D2R; remark: listed apart in the source

T1 sequence (P14416 whole entry, the tested form may be a part): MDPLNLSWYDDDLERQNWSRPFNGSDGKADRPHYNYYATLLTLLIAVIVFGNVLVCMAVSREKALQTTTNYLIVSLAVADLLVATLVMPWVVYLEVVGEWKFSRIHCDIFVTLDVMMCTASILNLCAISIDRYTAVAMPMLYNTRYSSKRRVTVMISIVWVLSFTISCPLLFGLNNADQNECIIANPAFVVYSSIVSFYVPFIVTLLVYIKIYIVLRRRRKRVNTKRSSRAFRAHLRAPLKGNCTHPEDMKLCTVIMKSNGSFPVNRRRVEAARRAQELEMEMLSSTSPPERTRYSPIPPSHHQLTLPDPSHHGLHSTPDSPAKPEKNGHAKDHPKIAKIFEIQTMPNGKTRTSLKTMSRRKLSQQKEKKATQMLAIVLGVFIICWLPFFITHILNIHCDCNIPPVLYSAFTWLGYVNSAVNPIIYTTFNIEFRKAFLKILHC

EC50 [2] | Compound | Emax [1] | EC50 [3] | further results
> 10 µM | Oc1cc2c(cc1O)[C@H]1c3cc(-c4cccc(C(F)(F)F)c4)sc3CN[C@@H]1CC2 [1h] | 73 ± 4.69% | 4.84 µM | –
– | Oc1cc2c(cc1O)[C@H]1c3cc(Br)sc3CN[C@@H]1CC2 (racemic) [1b] | 60.3 ± 2.27% | – | Emax [4]: 138 ± 8.41%
0.053 µM | Oc1cccc(-c2cccnc2)c1O [2d] | – | – | Emax [5]: 2.6 ± 1.8%; EC50 [6]: > 100 µM
0.0052 µM | Oc1cccc(-c2cccc(C(F)(F)F)c2)c1O [2b] | – | – | EC50 [7]: > 10 µM; Emax [5]: 6.13 ± 3.11%
> 10 µM | N#Cc1ccc(-c2cccc(O)c2O)cc1 [2c] | – | – | EC50 [7]: 0.0317 µM; Emax [8]: 1.61 ± 1.27%
– | COc1cccc(-c2ccc(O)c(O)c2)c1 [Z4642446630] | – | – | Emax [9]: 17.1 ± 5.3%; EC50 ([2]; agonist mode, beta-arrestin2 pathway, pH […]): 5.48 µM
0.0514 µM | NS(=O)(=O)c1ccc(-c2cccc(O)c2O)cc1 [2f] | – | – | Emax [5]: 4.6 ± 1.5%; EC50 [6]: > 100 µM
> 10 µM | Oc1cc2c(cc1O)[C@@H]1c3cc(-c4cccc(C(F)(F)F)c4)sc3CN[C@H]1CC2 [1i] | – | > 10 µM | –
> 10 µM | N#Cc1cccc(-c2cccc(O)c2O)c1 [2e] | – | – | EC50 [6]: > 100 µM
– | NCCc1ccc(O)c(O)c1 [DA] | – | – | D2R beta-arrestin Emax (%) [10]: 90.29±3.23%; β-arrestin Emax (%), D2R ([1]; beta-arrestin2 recruitment, % of dopamine, agonist): 90.29±3.23%
0.00733 µM | Nc1cccc(-c2cccc(O)c2O)c1 [2g] | – | – | Emax [5]: 4 ± 1.6%; EC50 [6]: > 100 µM
– | Oc1cc2c(cc1O)[C@H](c1cccs1)[C@@H](NCc1ccccc1)CC2 (racemic) [1l] | 8.62 ± 3.15% | – | –
0.689 µM | Oc1cccc(-c2cncc3ccccc23)c1O [2h] | – | – | Emax [5]: 8.1 ± 2.1%; EC50 [6]: > 100 µM
> 10 µM | Oc1cccc(-c2cnc3ccccc3c2)c1O [2i] | – | – | EC50 [6]: > 100 µM
– | Oc1cc2c(cc1O)[C@H]1c3cc(Br)sc3CN[C@@H]1CC2 [1c] | 70.3 ± 3.41% | – | Emax [4]: 137 ± 9.35%
6.9 µM | Cc1cc(-c2cccc(O)c2O)cs1 [2a] | – | – | Emax [8]: 13.9 ± 3.68%; Emax [5]: 30.3 ± 5.6%
0.534 µM | OCCCc1ccc(O)c(O)c1 [3b] | – | – | Emax [11]: 3.5 ± 1.9%; EC50 [12]: > 10 µM
– | N[C@H]1CCc2cc(O)c(O)cc2[C@@H]1c1cccs1 (racemic) [1m] | 27 ± 1.8% | – | Emax [4]: 3.7 ± 1.67%
0.229 µM | OCCc1ccc(O)c(O)c1 [3a] | – | 5.26 µM | Emax [13]: 9.98 ± 2.96%; Emax [11]: 11.5 ± 3.05%

Compound | EC50 [2] | Emax [1] | EC50 [3] | further results
Oc1cc2c(cc1O)[C@@H]1c3cc(Br)sc3CN[C@H]1CC2 [1d] | 2.63 µM | 50.6 ± 4.02% | 5.62 µM | Emax [4]: 52.8 ± 9.7%
CCCc1cc2c(s1)CN[C@@H]1CCc3cc(O)c(O)cc3[C@@H]21 [(-)-A-86929] | 0.607 µM | 79.7 ± 3.83% | 0.27 µM | Emax [4]: 95.5 ± 6.88%
CCCc1cc2c(s1)CN[C@H]1CCc3cc(O)c(O)cc3[C@H]21 [(+)-A-86929] | 2.8 µM | 38 ± 4.45% | 2.07 µM | Emax [4]: 94.1 ± 6.55%
CCCc1cc2c(s1)CN[C@@H]1CCc3cc(OC(C)=O)c(OC(C)=O)cc3[C@@H]21 [ABT-431] | 3.2 µM | 23 ± 2.15% | 3 µM | Emax [4]: 88.2 ± 3.06%
CN1Cc2sccc2[C@@H]2c3cc(O)c(O)cc3CC[C@H]21 (relative stereo) [1j] | > 10 µM | 73.4 ± 17.8% | 7.48 µM | –
